Key:
[1] = target: T1, β2-receptors of the cardiovascular system (Canis lupus familiaris, UniProt P54833); experiment: Blocking of Isoproterenol-induced alteration of peripheral perfusion of the femoral artery in anaesthetised dogs (β2-receptor inhibition); assay type: in vivo, mongrel dogs; details: for ED50: dog, intravenous, 50 % inhibition of reaction to Isoproterenol 0.05 gamma/kg intra-arterial, anaesthetised dogs, read-out: β2-receptor inhibition ED 50; for Relative β2-receptor inhibition (reference substance = 100): relative ED 50, Practolol = 100
T1 construct: from tissue; host or cells: femoral vascular bed of the living anaesthetised mongrel dog
T1 sequence (P54833 whole entry, the tested form may be a part): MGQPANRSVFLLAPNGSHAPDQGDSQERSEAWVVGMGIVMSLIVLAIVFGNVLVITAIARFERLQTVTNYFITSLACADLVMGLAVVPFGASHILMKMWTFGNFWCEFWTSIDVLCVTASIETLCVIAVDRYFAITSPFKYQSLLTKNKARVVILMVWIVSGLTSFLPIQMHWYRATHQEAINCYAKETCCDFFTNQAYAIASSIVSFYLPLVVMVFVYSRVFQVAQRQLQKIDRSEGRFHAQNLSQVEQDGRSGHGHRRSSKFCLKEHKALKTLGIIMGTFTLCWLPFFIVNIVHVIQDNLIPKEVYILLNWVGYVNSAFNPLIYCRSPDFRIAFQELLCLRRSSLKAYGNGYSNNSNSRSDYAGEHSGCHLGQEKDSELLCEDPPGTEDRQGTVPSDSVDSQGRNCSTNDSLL
Protocol: (§1) The blocking action of the compounds according to the invention on the β1-receptors of the heart and on the β2-receptors of the cardiovascular system was investigated as follows: the blood pressure in the left-hand ventricle was measured on mongrel dogs of both sexes under anaesthesia by Chloralose-urethane-morphine and the pressure signal was continuously differentiated by means of an analogue computer (BRUSH Instruments, Cleveland/Ohio) and, inter alia, the rate of pressure increase (Dp/dt) was recorded. In addition, the perfusion of a femoral artery was measured by means of an electromagnetic flow meter (Model […] of Messrs. Statham) and the perfusion was recorded in ml/minutes. […] DUNLOP and […]: Selective blockade of adrenoceptive beta-receptors in the heart. Brit. J. Pharmac. Chemother. (1968) 32, 201-218). The substances to be tested for β-receptor blocking were administered intravenously in increasing dosages to the animals, which had been anaesthetised and stimulated by means of Isoproterenol, and the quantity of substance was determined at which a 50 % inhibition of the two reactions caused by Isoproterenol occurred (ED50). […] The higher this quotient is, the better the cardioselective action.

[2] = target: T2, β1-receptors of the heart (Canis lupus familiaris, UniProt P79148); experiment: Blocking of Isoproterenol-induced increase of maximum rate of left-ventricular pressure rise (Dp/dt max.) in anaesthetised dogs (β1-receptor inhibition); assay type: in vivo, mongrel dogs; details: for ED50: dog, intravenous, 50 % inhibition of reaction to Isoproterenol 0.5 gamma/kg i.v., anaesthetised dogs, read-out: β1-receptor inhibition ED 50; for Quotient: ED 50 β2-receptor inhibition / ED 50 β1-receptor inhibition: measure of cardioselective action, higher = better; for Relative β1-receptor inhibition (reference substance = 100): relative ED 50, Practolol = 100, lower = more active; for Quotient, on basis of reference substance = 1: relative cardioselectivity factor, Practolol = 1
T2 construct: from tissue; host or cells: heart (left ventricle) of the living anaesthetised mongrel dog
T2 sequence (P79148 whole entry): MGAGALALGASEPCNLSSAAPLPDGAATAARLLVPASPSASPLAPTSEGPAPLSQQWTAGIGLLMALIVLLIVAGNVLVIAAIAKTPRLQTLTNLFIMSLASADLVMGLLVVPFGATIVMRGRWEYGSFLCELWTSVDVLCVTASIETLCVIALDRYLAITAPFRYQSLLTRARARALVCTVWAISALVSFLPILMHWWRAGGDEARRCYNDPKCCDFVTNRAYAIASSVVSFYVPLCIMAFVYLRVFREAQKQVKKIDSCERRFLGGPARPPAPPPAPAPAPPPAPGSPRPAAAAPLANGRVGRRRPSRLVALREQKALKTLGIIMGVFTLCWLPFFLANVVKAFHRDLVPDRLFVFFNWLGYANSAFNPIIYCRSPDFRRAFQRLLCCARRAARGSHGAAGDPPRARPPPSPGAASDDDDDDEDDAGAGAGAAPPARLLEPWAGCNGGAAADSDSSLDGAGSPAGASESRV
Protocol: as §1

| SMILES | ED50 [1] [mg/kg] | Relative β2-receptor inhibition (reference substance = 100) [1] | ED50 [2] [mg/kg] | Quotient: ED 50 β2-receptor inhibition / ED 50 β1-receptor inhibition [2] | Relative β1-receptor inhibition (reference substance = 100) [2] | Quotient, on basis of reference substance = 1 [2] |
| --- | --- | --- | --- | --- | --- | --- |
| CCCCOc1ccc(OCC(O)CNC(C)CC(O)c2ccc(C)nc2)cc1 (centres unmarked) [1-(4n-Butoxy-phenoxy)-3-(1-[6-methyl-pyridyl-3]-1-hydroxy-butyl-(3)-amino)-propan-2-ol] | 32.7 | 123.2 | 0.067 | 487 | 28.2 | 4.4 |
| CC(=O)Nc1ccc(OCC(O)CNC(C)C)cc1 (centres unmarked) [4-(2-Hydroxy-3-isopropylamino-propoxy)-acetanilide, reference compound] | 26.5 | 100 | 0.238 | 110 | 100 | 1 |
| Cc1ccc(C(O)CC(C)NCC(O)COc2ccc(Br)cc2)cn1 (centres unmarked) [1-(4-Bromo-phenoxy)-3-(1-[6-methyl-pyridyl-3]-1-hydroxy-butyl-(3)-amino)-propan-2-ol] |  |  | 0.074 |  | 31.1 |  |
| CCCOc1ccc(OCC(O)CNC(C)CC(O)c2ccc(C)nc2)cc1 (centres unmarked) [1-(4-n-Propoxy-phenoxy)-3-(1-[6-methyl-pyridyl-3]-1-hydroxy-butyl-(3)-amino)-propan-2-ol] | 1.8 | 6.8 | 0.011 | 171 | 4.6 | 1.5 |
| CC(=O)Nc1ccc(OCC(O)CNC(C)CC(O)c2ccc(C)nc2)cc1 (centres unmarked) [1-(p-Acetamino-phenoxy)-3-(1-[6-methyl-pyridyl-3]-1-hydroxy-butyl-(3)-amino)-propan-2-ol] | 1.99 | 7.5 | 0.012 | 165 | 5.04 | 1.5 |
| CCCCCOc1ccc(OCC(O)CNC(C)CC(O)c2ccc(C)nc2)cc1 (centres unmarked) [1-(4-n-Pentyloxy-phenoxy)-3-(1-[6-methyl-pyridyl-3]-1-hydroxy-butyl-(3)-amino)-propan-2-ol] | 7.74 | 29.2 | 0.057 | 136 | 29.9 | 1.2 |

— patent publication US3969363A, “Derivatives of 1-phenoxy-3-amino-propan-2-ol and process for their production” (Cassella Farbwerke Mainkur Aktiengesellschaft, priority 1973, dated 1976)
